“Also recorded” adds a separate entry of the source.
Tests used:
[1] = system: COLO 205; assay: Soft agar cloning assay; assay type: cell-based; settings: 1.25 µM SL0101 for 24 hrs prior to cloning, evaluated 7 days later, all plating densities
Protocol: The soft agar colony formation assay has been previously described. In brief, for each treatment condition, triplicate 35 mm^2 dishes were coated with a 1 ml base layer containing 0.7% agarose (Seaplaque: FMC Corp., Rockland, ME). On day 0, cells were dissociated, washed once in growth medium, and subcultured by layering various cell concentrations in 0.5 ml culture medium containing 0.3% agarose onto the base coat. Culture dishes were transferred to a refrigerator (4°C) for 15 min, to room temperature for 10 min, and then to culture incubators. An upper layer of 0.5 ml culture medium was applied on day 0. Cultures were stained with MTT (1 mg/ml) for visualization and imaging at multiple time intervals (day 7 and 14). Cumulative counts of colonies (diameters, >60 µm) and cumulative volumes of CFU (diameters >120 µm) were determined with an Omnicon FAS-II (Bausch & Lomb, Rochester, NY) following calibration with an Omnicon test plate 3 and polystyrene microspheres embedded in soft agar matrix. The evaluable region of each culture dish (35 contiguous fields equivalent to 51% of the cell layer culture volume) was analyzed. Selective scoring of viable cell groups was achieved by adjustment of the instrument detection threshold to exclude images of nonstained cellular material and debris. The data was analyzed with Lotus Symphony software.

[2] = system: MEK; settings: cited from earlier work
[3] = system: Raf; settings: cited from earlier work
[4] = system: PKC; settings: cited from earlier work

CC(=O)O[C@@H]1[C@@H](OC(C)=O)[C@@H](O)[C@H](Oc2c(-c3ccc(O)cc3)oc3cc(O)cc(O)c3c2=O)O[C@H]1C [SL0101]
Colony formation (≥60 µm) in soft agar vs control [1]: increased colony formation; also recorded: Statistically significant increases in colony formation | Activity against MEK [2]: no activity | Activity against Raf [3]: no activity | Activity against PKC [4]: no activity

Reference: paper PMC3578829, “A Small Molecule (Pluripotin) as a Tool for Studying Cancer Stem Cell Biology: Proof of Concept” (PLoS ONE, 2013)
